Reference: ChEMBL document CHEMBL1909046, “DrugMatrix in vitro pharmacology data”

How the values were obtained:
[1] = target: T1, Alpha-1A adrenergic receptor (Rattus norvegicus, UniProt P43140); assay: DRUGMATRIX: Alpha-1A adrenergic receptor radioligand binding (ligand: prazosin); format: cell membranes, Wistar, Submaxillary gland, Membrane; details: Not Active = under 50% inhibition at 10 µM
T1 sequence (P43140 whole entry): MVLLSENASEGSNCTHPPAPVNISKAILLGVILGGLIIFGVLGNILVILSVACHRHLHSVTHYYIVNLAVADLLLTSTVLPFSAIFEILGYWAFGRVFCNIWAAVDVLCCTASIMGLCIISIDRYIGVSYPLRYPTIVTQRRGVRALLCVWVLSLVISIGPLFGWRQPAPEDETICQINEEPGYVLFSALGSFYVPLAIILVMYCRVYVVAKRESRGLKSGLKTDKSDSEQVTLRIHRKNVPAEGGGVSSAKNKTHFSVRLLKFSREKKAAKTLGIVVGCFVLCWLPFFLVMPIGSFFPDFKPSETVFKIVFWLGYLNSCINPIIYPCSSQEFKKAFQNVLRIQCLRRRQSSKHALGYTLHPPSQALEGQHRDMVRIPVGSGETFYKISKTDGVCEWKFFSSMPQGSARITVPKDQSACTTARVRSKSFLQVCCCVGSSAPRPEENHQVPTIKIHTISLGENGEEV

[2] = DRUGMATRIX: Atrial Natriuretic Factor (ANF) radioligand binding (ligand: [125I] ANF (rat)); format: cell membranes, Cavia porcellus, Dunkin-Hartley, Adrenal gland, Membrane; details: Not Active = under 50% inhibition at 10 µM
[3] = target: T2, Vasoactive intestinal polypeptide receptor 1 (Homo sapiens, UniProt P32241); format: cell membranes, Membrane; details: ht-29; further: in other assays of this panel Not Active means under 50% inhibition at 10 µM
T2 sequence (P32241 whole entry): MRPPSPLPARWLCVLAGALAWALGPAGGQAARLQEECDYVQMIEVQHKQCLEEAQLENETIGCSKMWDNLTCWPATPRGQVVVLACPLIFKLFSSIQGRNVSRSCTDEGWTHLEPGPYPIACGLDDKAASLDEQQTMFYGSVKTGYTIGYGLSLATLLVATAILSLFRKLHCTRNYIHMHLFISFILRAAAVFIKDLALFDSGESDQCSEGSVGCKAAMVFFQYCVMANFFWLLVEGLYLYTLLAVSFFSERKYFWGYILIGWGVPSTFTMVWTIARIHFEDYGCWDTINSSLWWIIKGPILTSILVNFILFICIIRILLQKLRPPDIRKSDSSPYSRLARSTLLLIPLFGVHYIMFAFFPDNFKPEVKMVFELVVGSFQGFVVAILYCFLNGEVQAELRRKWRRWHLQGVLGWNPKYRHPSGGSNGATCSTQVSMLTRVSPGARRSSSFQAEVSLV

[4] = DRUGMATRIX: Glutamate, Kainate radioligand binding (ligand: [3H] Kainic acid); format: cell membranes, Rattus norvegicus, Wistar, Brain, Membrane; details: Not Active = under 50% inhibition at 10 µM
[5] = target: T3, Muscarinic acetylcholine receptor M2 (Homo sapiens, UniProt P08172); format: cell membranes, CHO-K1, Membrane; details: cho-k1; further: in other assays of this panel Not Active means under 50% inhibition at 10 µM
T3 sequence (P08172 whole entry): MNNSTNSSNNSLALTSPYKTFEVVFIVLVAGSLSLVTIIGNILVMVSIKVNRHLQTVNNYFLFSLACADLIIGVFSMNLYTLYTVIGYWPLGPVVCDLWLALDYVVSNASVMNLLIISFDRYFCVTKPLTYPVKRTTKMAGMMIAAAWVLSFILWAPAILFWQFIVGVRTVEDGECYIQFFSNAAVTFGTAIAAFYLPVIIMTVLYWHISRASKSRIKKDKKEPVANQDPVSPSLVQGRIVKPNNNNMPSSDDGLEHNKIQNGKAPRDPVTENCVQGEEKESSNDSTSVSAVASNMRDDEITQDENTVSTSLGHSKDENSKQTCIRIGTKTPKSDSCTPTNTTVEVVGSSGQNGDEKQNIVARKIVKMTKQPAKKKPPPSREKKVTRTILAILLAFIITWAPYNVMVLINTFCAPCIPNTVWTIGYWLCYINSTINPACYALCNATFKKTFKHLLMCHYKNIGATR

[6] = target: Delta-type opioid receptor (Homo sapiens, UniProt P41143); format: cell membranes, HEK293, Membrane; details: hek293; further: in other assays of this panel Not Active means under 50% inhibition at 10 µM
Delta-type opioid receptor, sequence (P41143 whole entry): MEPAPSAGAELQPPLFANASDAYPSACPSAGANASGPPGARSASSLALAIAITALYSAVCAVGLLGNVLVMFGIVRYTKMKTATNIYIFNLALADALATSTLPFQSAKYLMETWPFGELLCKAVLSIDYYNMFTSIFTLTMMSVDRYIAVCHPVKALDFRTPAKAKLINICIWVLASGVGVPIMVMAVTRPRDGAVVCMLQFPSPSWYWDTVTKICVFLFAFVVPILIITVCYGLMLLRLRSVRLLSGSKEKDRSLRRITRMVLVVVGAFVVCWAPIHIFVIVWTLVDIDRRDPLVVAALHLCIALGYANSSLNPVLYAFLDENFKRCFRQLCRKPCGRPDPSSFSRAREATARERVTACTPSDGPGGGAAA

[7] = target: Protein kinase C alpha type (Homo sapiens, UniProt P17252); format: cell-based; details: sf9;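 further: inhibition of PKCalpha kinase activity measured in an enzyme assay with histone as the phosphorylation substrate; in other assays of this panel Not Active means under 50% inhibition at 10 µM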

CC[C@]1(O)C[C@@H]2CN(CCc3c([nH]c4ccccc34)[C@@](C(=O)OC)(c3cc4c(cc3OC)N(C)[C@H]3[C@@](O)(C(N)=O)[C@H](O)[C@]5(CC)C=CCN6CC[C@]43[C@@H]65)C2)C1 [VINDESINE]
Not Active: IC50 [1] | IC50 [2] | Ki [2] | IC50 [3] | IC50 [4] | Ki [4] | IC50 [5] | IC50 [6] | IC50 [7]

CCOc1nc2cccc(C(=O)O)c2n1Cc1ccc(-c2ccccc2-c2nnn[nH]2)cc1
Not Active: IC50 [1] | IC50 [2] | Ki [2] | IC50 [3] | IC50 [4] | Ki [4] | IC50 [5] | IC50 [6] | IC50 [7]

C[S+](C)[O-] [DIMETHYL SULFOXIDE]
Not Active: IC50 [1] | IC50 [2] | Ki [2] | IC50 [3] | IC50 [4] | Ki [4] | IC50 [5] | IC50 [6] | IC50 [7]

C[C@@H]1O[C@@H](O[C@H]2C[C@@H](O)[C@]3(CO)[C@H]4[C@H](O)C[C@]5(C)[C@@H](C6=CC(=O)OC6)CC[C@]5(O)[C@@H]4CC[C@]3(O)C2)[C@H](O)[C@H](O)[C@H]1O [OUABAIN]
Not Active: IC50 [1] | IC50 [2] | Ki [2] | IC50 [3] | IC50 [4] | Ki [4] | IC50 [5] | IC50 [6] | IC50 [7]

C#C[C@]1(O)CC[C@H]2[C@@H]3CCC4=CC(=O)CC[C@]4(C)[C@H]3CC[C@@]21C [ETHISTERONE]
Not Active: IC50 [1] | IC50 [2] | Ki [2] | IC50 [3] | IC50 [4] | Ki [4] | IC50 [5] | IC50 [6] | IC50 [7]

O=C(c1ccccc1F)N1CCC(Cc2ccccc2)CC1
Not Active: IC50 [1] | IC50 [2] | Ki [2] | IC50 [3] | IC50 [4] | Ki [4] | IC50 [5] | IC50 [6] | IC50 [7]

O=C(O)CCNC(=O)c1ccc(/N=N/c2ccc(O)c(C(=O)O)c2)cc1 [BALSALAZIDE]
Not Active: IC50 [1] | IC50 [2] | Ki [2] | IC50 [3] | IC50 [4] | Ki [4] | IC50 [5] | IC50 [6] | IC50 [7]

CN1C(=O)CN=C(c2ccccc2)c2cc([N+](=O)[O-])ccc21 [NIMETAZEPAM]
Not Active: IC50 [1] | IC50 [2] | Ki [2] | IC50 [3] | IC50 [4] | Ki [4] | IC50 [5] | IC50 [6] | IC50 [7]

NS(=O)(=O)c1cc(C2(O)NC(=O)c3ccccc32)ccc1Cl (configuration not stated) [CHLORTHALIDONE]
Not Active: IC50 [1] | IC50 [2] | Ki [2] | IC50 [3] | IC50 [4] | Ki [4] | IC50 [5] | IC50 [6] | IC50 [7]

CC(=O)OCC(=O)[C@@]1(O)CC[C@H]2[C@@H]3CCC4=CC(=O)CC[C@]4(C)[C@@]3(F)[C@@H](O)C[C@@]21C [FLUDROCORTISONE ACETATE]
Not Active: IC50 [1] | IC50 [2] | Ki [2] | IC50 [3] | IC50 [4] | Ki [4] | IC50 [5] | IC50 [6] | IC50 [7]

COLISTIN
Not Active: IC50 [1] | Ki [1] | IC50 [2] | Ki [2] | IC50 [3] | Ki [3] | IC50 [4] | Ki [4] | IC50 [5] | Ki [5] | IC50 [6] | Ki [6] | IC50 [7] | Ki [7]

O=c1c(-c2ccc(O)cc2)coc2cc(O)cc(O)c12 [GENISTEIN]
Not Active: IC50 [1] | IC50 [2] | Ki [2] | IC50 [3] | IC50 [4] | Ki [4] | IC50 [5] | IC50 [6] | IC50 [7]

CN1C[C@@H]2C[C@H]1CN2c1cc2c(cc1F)c(=O)c(C(=O)O)cn2C1CC1 [DANOFLOXACIN]
Not Active: IC50 [1] | IC50 [2] | Ki [2] | IC50 [3] | IC50 [4] | Ki [4] | IC50 [5] | IC50 [6] | IC50 [7]

C[C@]12C=CC(=O)C=C1CC[C@H]1[C@@H]3C[C@@H](O)[C@](O)(C(=O)CO)[C@@]3(C)C[C@H](O)[C@@]12F [TRIAMCINOLONE]
Not Active: IC50 [1] | IC50 [2] | Ki [2] | IC50 [3] | IC50 [4] | Ki [4] | IC50 [5] | IC50 [6] | IC50 [7]

CN1CCN(c2c(F)cc3c(=O)c(C(=O)O)cn(CCF)c3c2F)CC1 [FLEROXACIN]
Not Active: IC50 [1] | IC50 [2] | Ki [2] | IC50 [3] | IC50 [4] | Ki [4] | IC50 [5] | IC50 [6] | IC50 [7]

CC(C)(C(=O)O)c1ccc(C(O)CCCN2CCC(C(O)(c3ccccc3)c3ccccc3)CC2)cc1 (configuration not stated) [FEXOFENADINE]
Not Active: IC50 [1] | IC50 [2] | Ki [2] | IC50 [3] | IC50 [4] | Ki [4] | IC50 [5] | IC50 [6] | IC50 [7]

CC(O)(P(=O)(O)O)P(=O)(O)O [ETIDRONIC ACID]
Not Active: IC50 [1] | IC50 [2] | Ki [2] | IC50 [3] | IC50 [4] | Ki [4] | IC50 [5] | IC50 [6] | IC50 [7]

CCOC(=O)c1ncn2c1CN(C)C(=O)c1cc(F)ccc1-2 [FLUMAZENIL]
Not Active: IC50 [1] | IC50 [2] | Ki [2] | IC50 [3] | IC50 [4] | Ki [4] | IC50 [5] | IC50 [6] | IC50 [7]

NNCCc1ccccc1 [PHENELZINE]
Not Active: IC50 [1] | IC50 [2] | Ki [2] | IC50 [3] | IC50 [4] | Ki [4] | IC50 [5] | IC50 [6] | IC50 [7]

COc1ccc2c(c1OC)C(=O)O[C@@H]2[C@H]1c2c(cc3c(c2OC)OCO3)CCN1C [NOSCAPINE]
Not Active: IC50 [1] | IC50 [2] | Ki [2] | IC50 [3] | IC50 [4] | Ki [4] | IC50 [5] | IC50 [6] | IC50 [7]

COBALTOUS CHLORIDE
Not Active: IC50 [1] | Ki [1] | IC50 [2] | Ki [2] | IC50 [3] | Ki [3] | IC50 [4] | Ki [4] | IC50 [5] | Ki [5] | IC50 [6] | Ki [6] | IC50 [7] | Ki [7]

CC(=O)Oc1ccccc1C(=O)O [ASPIRIN]
Not Active: IC50 [1] | IC50 [2] | Ki [2] | IC50 [3] | IC50 [4] | Ki [4] | IC50 [5] | IC50 [6] | IC50 [7]

CCN(CC)CCNC(=O)c1ccc(N)cc1 [PROCAINAMIDE]
Not Active: IC50 [1] | IC50 [2] | Ki [2] | IC50 [3] | IC50 [4] | Ki [4] | IC50 [5] | IC50 [6] | IC50 [7]
